Data set [1] has as its system MG-63 osteoblast cells. Kind of data set: Time to confluence of MG-63 osteoblast cells in tissue culture with fluoride compounds in the medium. The settings on record: for Time to confluence / Time to confluence (days): compounds at 1400ppm fluoride in cell growth media, 5x10cm tissue culture flasks, control without fluoride 4-5 days; for effect on osteoblast cells in culture (lysis / influence on growth / toxicity) / inhibition of cell growth: MG-63 osteoblasts; for effect on osteoblast cells in culture (lysis / influence on growth / toxicity): 1400ppm fluoride, result in words; for inhibition of cell growth: 1400ppm fluoride concentration, relative to control.

For data set [2], the system named is MG-63 osteoblast cells.

This note sets out measurements from patent EP4311580A1, “AMINOACID-FLUORIDE SALTS FOR MOUTH HYGIENE” (Schäfer, Rolf, priority 2022, dated 2024).

Like-named read-outs stand apart in the source and are kept apart here.

Consider `CCOC(=O)[C@H](C)N.F.N` [Alanine-O-ethylester-ammoniumfluoride], for which, in data set [1], the “Time to confluence” value is 5 to 6 days.

On to `CCCCCCCCC=CCCCCCCCCN.F` [Dectaflur, 9-octadecenylamine-hydrofluoride, reference compound], for which, in data set [1], the “effect on osteoblast cells in culture (lysis / influence on growth / toxicity)” value is on record as “lysing (dissolving the membrane) osteoblast cells” and the “Time to confluence (days)” value was “cell lysis”.

`F.F.N.N.N[C@@H](Cc1c[nH]cn1)C(=O)O` [Histidine-ammonium-difluoride]: the “Time to confluence” value in data set [1] fell in the range of 7 to 8 days.

Turning to `CCOC(=O)[C@@H](N)CCCCN` [Lysine-O-ethylester-ε-ammoniumdifluoride], in data set [2], the “Time to confluence” value was 5 to 6 days.

As for `NCCCCC(N)C(=O)O` (stereo not shown) [Lysine-ε-ammonium-fluoride], the “Time to confluence” value in data set [2] was 4 to 5 days. Besides, in data set [1], the “inhibition of cell growth” value was “no inhibition at all” and the “effect on osteoblast cells in culture (lysis / influence on growth / toxicity)” value was “no influence of growth on osteoblasts”.

On to `CCCCCCCCCCCCCCCCCCN(CCO)CCCN(CCO)CCO` [Olaflur, reference compound], for which, in data set [1], the “effect on osteoblast cells in culture (lysis / influence on growth / toxicity)” value is listed as “lysing (dissolving the membrane) osteoblast cells” and the “Time to confluence (days)” value was “cell lysis”.

Turning to `CCCCCCCCCCCCOS(=O)(=O)[O-].[Na+]` [Sodium laurylsulfate (SDS), Sodium laurylsulfate, reference compound], the “Time to confluence (days)” value in data set [2] is “cell lysis”. Further, the “effect on osteoblast cells in culture (lysis / influence on growth / toxicity)” value in data set [1] is recorded as “lysing (dissolving the membrane) osteoblast cells”.

On to `NC(Cc1c[nH]c2ccccc12)C(=O)O` (stereo not shown) [Tryptophan-N-ammonium-mono-hydrofluoride], for which the “Time to confluence” value in data set [1] lay in the range of 5 to 6 days.

`CCOC(=O)[C@@H](N)Cc1c[nH]c2ccccc12` [Tryptophan-O-ethylester-N,N'-ammoniumdifluoride]: in data set [1], the “Time to confluence” value is 8 to 9 days.

For the compound `CCOC(=O)[C@@H](N)Cc1ccc(O)cc1.F.N` [Tyrosine-O-ethylester-ammoniumfluoride], the “Time to confluence” value in data set [1] lay in the range of 5 to 6 days.

For Decalysine-ε-ammonium-decafluoride, in data set [1], the “inhibition of cell growth” value is given as 40-50% and the “Time to confluence” value was 8 to 9 days.

Turning to Potassium fluoride [reference compound], the “Time to confluence” value in data set [2] is 6 to 7 days.

Consider sodium fluoride [reference compound], for which the “inhibition of cell growth” value in data set [1] was 20%.
